In ChEMBL document CHEMBL1201862, “PubChem BioAssay data set” (2004):
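Step 1: Grow cells in 96-well plates. Step 2: Expose to compound for 48 hours at 5 concentrations. Step 3: Interpolate endpoints linearly; if unreached, use highest concentration. At the GI50, growth is halved.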 The source made the active and inactive calls. Rule as the data show it: active = GI50 up to about 1.1 µM and inactive = higher.

How the values were obtained:
Assay in all cases: NCI-60 cell line screen, 48 h
[1] = system: 786-0
[2] = system: A498
[3] = system: A549
[4] = system: ACHN
[5] = system: BT-549
[6] = system: CAKI-1
[7] = system: CCRF-CEM
[8] = system: COLO 205
[9] = system: DU-145
[10] = system: EKVX
[11] = system: HCC 2998
[12] = system: HCT-116
[13] = system: HCT-15
[14] = system: HOP-62
[15] = system: HOP-92
[16] = system: KM12
[17] = system: LOX IMVI
[18] = system: M14
[19] = system: MCF7
[20] = system: MDA-MB-231
[21] = system: MDA-MB-435
[22] = system: MOLT-4
[23] = system: NCI-H226
[24] = system: NCI-H23
[25] = system: NCI-H460
[26] = system: NCI/ADR-RES
[27] = system: OVCAR-3
[28] = system: OVCAR-4
[29] = system: OVCAR-5
[30] = system: OVCAR-8
[31] = system: PC-3
[32] = system: RPMI-8226
[33] = system: RXF 393
[34] = system: SF-268
[35] = system: SF-295
[36] = system: SK-MEL-28
[37] = system: SK-MEL-2
[38] = system: SK-MEL-5
[39] = system: SK-OV-3
[40] = system: SNB-19
[41] = system: SNB-75
[42] = system: SW-620
[43] = system: T47D
[44] = system: TK-10
[45] = system: U-251
[46] = system: UACC-257
[47] = system: UACC-62
[48] = system: UO-31
[49] = system: HL-60
[50] = system: HT-29
[51] = system: Hs-578T
[52] = system: IGROV-1
[53] = system: K562
[54] = system: MDA-N
[55] = system: Malme-3M
[56] = system: NCI-H522
[57] = system: SF-539
[58] = system: SN12C
[59] = system: SR

Measured: GI50

CN(C)C(=O)C(F)(F)C(c1ccc(F)cc1)C1C(=O)N(C)C(=O)N(C)C1=O (stereo not given)
inactive: [1] > 100 µM | [2] > 100 µM | [3] > 100 µM | [4] > 100 µM | [5] > 100 µM | [6] > 100 µM | [7] > 100 µM | [8] > 100 µM | [9] > 100 µM | [10] > 100 µM | [11] > 100 µM | [12] > 100 µM | [14] > 100 µM | [15] > 100 µM | [16] > 100 µM | [17] > 100 µM | [18] > 100 µM | [19] > 100 µM | [20] > 100 µM | [21] > 100 µM | [22] > 100 µM | [23] > 100 µM | [24] > 100 µM | [25] > 100 µM | [26] > 100 µM | [27] > 100 µM | [28] > 100 µM | [29] > 100 µM | [30] > 100 µM | [31] > 100 µM | [32] > 100 µM | [33] > 100 µM | [34] > 100 µM | [35] > 100 µM | [36] > 100 µM | [37] > 100 µM | [38] > 100 µM | [39] > 100 µM | [40] > 100 µM | [41] > 100 µM | [42] > 100 µM | [43] > 100 µM | [44] > 100 µM | [45] > 100 µM | [46] > 100 µM | [47] > 100 µM | [48] > 100 µM
> 100 µM: [13]

CN1CCC(O)(OC(=O)C(c2ccccc2)C2(O)CCCC2)CC1 (stereo not given)
> 100 µM: [13]
inactive: [1] > 100 µM | [2] > 100 µM | [3] > 100 µM | [4] > 100 µM | [6] > 100 µM | [7] > 100 µM | [8] > 100 µM | [9] > 100 µM | [10] > 100 µM | [11] > 100 µM | [12] > 100 µM | [49] > 100 µM | [14] > 100 µM | [15] > 100 µM | [50] > 100 µM | [51] > 100 µM | [52] > 100 µM | [53] > 100 µM | [16] > 100 µM | [17] > 100 µM | [18] > 100 µM | [19] > 100 µM | [20] > 100 µM | [21] > 100 µM | [54] > 100 µM | [22] > 100 µM | [55] > 100 µM | [23] > 100 µM | [24] > 100 µM | [25] > 100 µM | [56] > 100 µM | [26] > 100 µM | [27] > 100 µM | [28] > 100 µM | [29] > 100 µM | [30] > 100 µM | [31] > 100 µM | [32] > 100 µM | [33] > 100 µM | [34] > 100 µM | [35] > 100 µM | [57] > 100 µM | [36] > 100 µM | [37] > 100 µM | [38] > 100 µM | [39] > 100 µM | [58] > 100 µM | [40] > 100 µM | [41] > 100 µM | [59] > 100 µM | [42] > 100 µM | [43] > 100 µM | [44] > 100 µM | [45] > 100 µM | [46] > 100 µM | [47] > 100 µM
